Laboratory results published in ChEMBL document CHEMBL5390243, “Catecholamine Derivatives: Natural Occurrence, Structural Diversity, and Biological Activity” (J Nat Prod, 2023).
Values after ≈ are worked out from the molar mass of the structure shown.

Columns and labels:
[1] = Metal chelating activity assessed as iron chelation by CAS assay
[2] = target: Glycogen synthase kinase-3 beta (Homo sapiens, UniProt P49841); assay: Inhibition of N-terminal His6-tagged human recombinant GSK3beta expressed in baculovirus-infected Sf21 cells incubated for 60 mins in presence of ATP by ADP-glo analysis
Sequence of Glycogen synthase kinase-3 beta (P49841 whole entry): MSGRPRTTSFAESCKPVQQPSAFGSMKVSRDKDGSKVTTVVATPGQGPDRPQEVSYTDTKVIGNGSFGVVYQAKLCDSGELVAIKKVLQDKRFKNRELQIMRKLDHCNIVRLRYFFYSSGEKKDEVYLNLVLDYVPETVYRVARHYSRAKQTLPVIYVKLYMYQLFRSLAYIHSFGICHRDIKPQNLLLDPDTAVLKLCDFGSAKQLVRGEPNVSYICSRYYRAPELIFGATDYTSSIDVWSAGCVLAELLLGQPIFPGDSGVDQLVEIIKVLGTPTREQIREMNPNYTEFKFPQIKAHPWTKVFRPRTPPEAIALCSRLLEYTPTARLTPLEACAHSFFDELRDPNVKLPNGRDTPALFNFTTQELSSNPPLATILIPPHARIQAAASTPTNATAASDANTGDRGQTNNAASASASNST

[3] = target: Cyclin-dependent kinase 5/CDK5 activator 1 (Homo sapiens, UniProt Q00535); assay: Inhibition of N-terminal full length human recombinant CDK5/p25 expressed in baculovirus-infected Sf21 cells incubated for 60 mins in presence of ATP by kinase-glo luminescent assay
Sequence of Cyclin-dependent kinase 5/CDK5 activator 1 (Q00535 whole entry, the tested form may be a part, canonical isoform): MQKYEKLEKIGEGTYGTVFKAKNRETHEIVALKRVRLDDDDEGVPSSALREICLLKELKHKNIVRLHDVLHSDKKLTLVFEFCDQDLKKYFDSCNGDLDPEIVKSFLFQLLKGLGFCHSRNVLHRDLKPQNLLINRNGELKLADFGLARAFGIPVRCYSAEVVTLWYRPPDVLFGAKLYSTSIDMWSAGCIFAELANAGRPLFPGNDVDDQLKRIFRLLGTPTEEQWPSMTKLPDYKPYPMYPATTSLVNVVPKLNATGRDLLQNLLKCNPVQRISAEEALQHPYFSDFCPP
Sequence of Cyclin-dependent kinase 5/CDK5 activator 1 (Q15078 whole entry, further chain, the tested form may be a part, canonical isoform): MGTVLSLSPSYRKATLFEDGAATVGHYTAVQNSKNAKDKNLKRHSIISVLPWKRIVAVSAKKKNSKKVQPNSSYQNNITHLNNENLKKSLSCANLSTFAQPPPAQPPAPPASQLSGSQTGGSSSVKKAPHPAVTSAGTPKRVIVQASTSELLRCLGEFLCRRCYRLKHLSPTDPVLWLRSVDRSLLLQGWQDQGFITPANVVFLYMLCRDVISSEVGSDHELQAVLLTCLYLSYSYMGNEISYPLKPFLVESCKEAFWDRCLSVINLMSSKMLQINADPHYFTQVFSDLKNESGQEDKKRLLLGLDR

[4] = target: Casein kinase I isoform delta (Homo sapiens, UniProt P48730); assay: Inhibition of N-terminal GST-tagged human recombinant CK1delta (1 to 294 residues) expressed in Escherichia coli incubated for 60 mins in presence of ATP by Kinase-glo luminescent assay
Sequence of Casein kinase I isoform delta (P48730 whole entry, the tested form may be a part, canonical isoform): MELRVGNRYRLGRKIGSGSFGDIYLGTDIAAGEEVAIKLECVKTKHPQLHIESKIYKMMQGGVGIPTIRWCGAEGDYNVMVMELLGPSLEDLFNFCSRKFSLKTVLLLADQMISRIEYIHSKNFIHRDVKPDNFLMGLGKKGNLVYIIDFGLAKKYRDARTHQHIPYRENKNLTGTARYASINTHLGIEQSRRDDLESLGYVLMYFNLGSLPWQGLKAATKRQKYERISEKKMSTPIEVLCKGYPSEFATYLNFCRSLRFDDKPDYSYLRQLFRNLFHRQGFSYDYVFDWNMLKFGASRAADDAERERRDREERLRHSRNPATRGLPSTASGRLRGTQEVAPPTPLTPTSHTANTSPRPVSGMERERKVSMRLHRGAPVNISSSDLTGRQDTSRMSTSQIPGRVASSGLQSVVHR

[5] = system: RAW264.7; assay: Anti-inflammatory activity against mouse RAW264.7 cells assessed as inhibition of LPS-induced nitric oxide production at 50 uM preincubated for 2 hrs with compound followed by LPS-stimulation and measured after 24 hrs by Griess reagent based analysis; type: functional, cell-based
[6] = target: T1, Acetylcholinesterase (Homo sapiens, UniProt P22303); assay: Inhibition of Acetylcholinesterase (unknown origin) using acetylthiocholine iodide as substrate incubated for 20 mins by Ellaman's method
T1 sequence (P22303 whole entry): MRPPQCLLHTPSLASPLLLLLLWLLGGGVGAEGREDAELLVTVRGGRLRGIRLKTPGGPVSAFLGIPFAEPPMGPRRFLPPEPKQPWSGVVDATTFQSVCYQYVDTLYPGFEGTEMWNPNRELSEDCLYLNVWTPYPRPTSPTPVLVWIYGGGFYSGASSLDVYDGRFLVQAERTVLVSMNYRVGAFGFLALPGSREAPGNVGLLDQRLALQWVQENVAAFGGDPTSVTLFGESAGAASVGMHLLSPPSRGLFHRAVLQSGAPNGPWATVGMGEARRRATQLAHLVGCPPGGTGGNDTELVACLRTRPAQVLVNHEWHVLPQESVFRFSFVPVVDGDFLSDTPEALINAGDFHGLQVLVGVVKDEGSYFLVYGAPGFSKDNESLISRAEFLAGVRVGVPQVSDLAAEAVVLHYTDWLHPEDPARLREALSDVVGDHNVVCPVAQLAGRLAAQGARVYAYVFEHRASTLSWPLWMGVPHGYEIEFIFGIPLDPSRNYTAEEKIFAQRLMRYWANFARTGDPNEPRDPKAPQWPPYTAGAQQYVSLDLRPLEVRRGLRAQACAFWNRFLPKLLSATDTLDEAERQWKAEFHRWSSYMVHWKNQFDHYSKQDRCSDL

[7] = system: MCF7; assay: Cytotoxicity against human MCF7 cells assessed as reduction in cell viability measured after 24 hrs by MTT assay; type: functional, cell-based; conditions: MCF7, 24 h
[8] = Antioxidant activity assessed as DPPH radical scavenging activity incubated for 20 mins by spectrophotometric method; type: functional
[9] = Immunosuppressive activity in Kunming mouse splenocyte assessed as reduction in ConA-stimulated T-lymphocytes proliferation at 20 uM incubated for 72 hrs by CCK-8 assay relative to control; type: functional, T-cell; design: scale not given: the % may be the effect or the level left
[10] = system: RAW264.7; assay: Anti-inflammatory activity against mouse RAW264.7 cells assessed as inhibition of LPS-induced NO production at 10 uM preincubated with compound for 2 hrs followed by LPS stimulation and measured after 24 hrs by Griess reagent based analysis; type: functional, cell-based
[11] = target: T1, Acetylcholinesterase; assay: Inhibition of human AchE using acetylthiocholine iodide as substrate incubated for 20 mins by Ellman's assay; conditions: read-out: EC50 (the source's name)
[12] = system: RAW264.7; assay: Anti-inflammatory activity against mouse RAW264.7 cells assessed as inhibition of LPS-induced NO production at 100 ng/ml pretreated with compound for 2 hrs followed by LPS stimulation and measured after 24 hrs by Griess reagent based analysis; type: functional; design: scale not given: the % may be the effect or the level left; conditions: time 26 hrs
[13] = system: RAW264.7; assay: Antiinflammatory activity against LPS-induced mouse RAW264.7 cells assessed as reduction in IL-6 mRNA expression at 10 uM by RT-PCR analysis; type: functional; design: scale not given: the % may be the effect or the level left
[14] = target: Beta-1 adrenergic receptor (Homo sapiens) (UniProt P08588); assay: Agonist activity at ARbeta1 (unknown origin) expressed in CHO-K1 cells co-expressing G alpha 15 assessed as inhibition of isoproterenol induced calcium response upto 100 uM incubated for 10 mins by calcium mobilization assay relative to control; type: functional, cell-based; design: Activity: scale not given: the % may be the effect or the level left
Sequence of Beta-1 adrenergic receptor (Homo sapiens) (P08588 whole entry, looked up): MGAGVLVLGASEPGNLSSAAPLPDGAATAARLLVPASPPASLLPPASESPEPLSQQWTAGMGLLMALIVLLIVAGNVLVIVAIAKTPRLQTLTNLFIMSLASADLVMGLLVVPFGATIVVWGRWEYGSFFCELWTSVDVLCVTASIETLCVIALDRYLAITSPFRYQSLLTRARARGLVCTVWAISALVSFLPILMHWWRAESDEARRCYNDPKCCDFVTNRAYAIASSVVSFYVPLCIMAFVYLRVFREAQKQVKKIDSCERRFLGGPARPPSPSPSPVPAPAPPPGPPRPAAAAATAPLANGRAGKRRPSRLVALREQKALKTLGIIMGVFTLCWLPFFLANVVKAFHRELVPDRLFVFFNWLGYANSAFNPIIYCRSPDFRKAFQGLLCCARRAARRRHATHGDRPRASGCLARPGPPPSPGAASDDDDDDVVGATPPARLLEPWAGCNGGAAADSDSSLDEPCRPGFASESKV

[15] = system: SGC-7901; assay: Cytotoxicity against human SGC-7901 cells assessed as reduction in cell viability measured after 72 hrs by MTT assay; type: functional, cell-based; conditions: SGC-7901, 72 h
[16] = target: T1, Acetylcholinesterase; assay: Inhibition of AChE (unknown origin) by Ellman's method
[17] = target: Cholinesterase (Homo sapiens, UniProt P06276); assay: Inhibition of butyrylcholinesterase (unknown origin)
Sequence of Cholinesterase (P06276 whole entry): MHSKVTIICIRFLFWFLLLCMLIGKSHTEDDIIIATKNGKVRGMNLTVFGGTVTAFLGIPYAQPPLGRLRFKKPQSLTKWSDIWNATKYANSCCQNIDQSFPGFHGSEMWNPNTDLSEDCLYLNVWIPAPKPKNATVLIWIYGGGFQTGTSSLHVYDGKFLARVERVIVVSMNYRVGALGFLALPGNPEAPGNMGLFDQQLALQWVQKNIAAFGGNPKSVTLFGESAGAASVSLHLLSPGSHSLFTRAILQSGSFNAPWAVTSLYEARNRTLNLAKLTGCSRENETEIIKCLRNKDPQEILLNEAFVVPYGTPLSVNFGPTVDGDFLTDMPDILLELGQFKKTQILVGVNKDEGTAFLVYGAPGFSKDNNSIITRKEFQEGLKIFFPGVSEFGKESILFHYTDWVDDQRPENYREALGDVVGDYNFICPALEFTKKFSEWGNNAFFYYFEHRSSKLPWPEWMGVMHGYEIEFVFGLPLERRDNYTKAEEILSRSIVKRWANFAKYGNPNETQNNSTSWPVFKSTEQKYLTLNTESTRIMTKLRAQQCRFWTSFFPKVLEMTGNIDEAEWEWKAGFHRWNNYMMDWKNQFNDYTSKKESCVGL

[18] = Antioxidant activity assessed as DPPH radical scavenging activity; type: functional
[19] = Antioxidant activity assessed as DPPH radical scavenging activity measured after 30 mins by UV-visible spectrophotometric analysis; type: functional
[20] = Antioxidant activity assessed as ABTS radical scavenging activity incubated for 30 mins by UV-visible spectrphotometric analysis; type: functional
[21] = system: RAW264.7; assay: Antiinflammatory activity in LPS-induced mouse RAW264.7 cells assessed as reduction in COX-2 level at 100 uM pretreated for 1 hr followed by LPS stimulation and measured after 48 hrs by ELISA relative to control; type: functional; design: scale not given: the % may be the effect or the level left; conditions: time 49 hrs
[22] = system: Helicoverpa armigera; assay: Antifeedant activity against Helicoverpa armigera at 100 uM relative to control; type: functional
[23] = target: Tyrosine-protein kinase JAK3 (Homo sapiens, UniProt P52333); assay: Inhibition of JAK3 (unknown origin) preincubated for 1 hr followed by substrate addition and measured after 1 hr in the presence of ATP by FRET-based Z'-Lyte assay
Sequence of Tyrosine-protein kinase JAK3 (P52333 whole entry): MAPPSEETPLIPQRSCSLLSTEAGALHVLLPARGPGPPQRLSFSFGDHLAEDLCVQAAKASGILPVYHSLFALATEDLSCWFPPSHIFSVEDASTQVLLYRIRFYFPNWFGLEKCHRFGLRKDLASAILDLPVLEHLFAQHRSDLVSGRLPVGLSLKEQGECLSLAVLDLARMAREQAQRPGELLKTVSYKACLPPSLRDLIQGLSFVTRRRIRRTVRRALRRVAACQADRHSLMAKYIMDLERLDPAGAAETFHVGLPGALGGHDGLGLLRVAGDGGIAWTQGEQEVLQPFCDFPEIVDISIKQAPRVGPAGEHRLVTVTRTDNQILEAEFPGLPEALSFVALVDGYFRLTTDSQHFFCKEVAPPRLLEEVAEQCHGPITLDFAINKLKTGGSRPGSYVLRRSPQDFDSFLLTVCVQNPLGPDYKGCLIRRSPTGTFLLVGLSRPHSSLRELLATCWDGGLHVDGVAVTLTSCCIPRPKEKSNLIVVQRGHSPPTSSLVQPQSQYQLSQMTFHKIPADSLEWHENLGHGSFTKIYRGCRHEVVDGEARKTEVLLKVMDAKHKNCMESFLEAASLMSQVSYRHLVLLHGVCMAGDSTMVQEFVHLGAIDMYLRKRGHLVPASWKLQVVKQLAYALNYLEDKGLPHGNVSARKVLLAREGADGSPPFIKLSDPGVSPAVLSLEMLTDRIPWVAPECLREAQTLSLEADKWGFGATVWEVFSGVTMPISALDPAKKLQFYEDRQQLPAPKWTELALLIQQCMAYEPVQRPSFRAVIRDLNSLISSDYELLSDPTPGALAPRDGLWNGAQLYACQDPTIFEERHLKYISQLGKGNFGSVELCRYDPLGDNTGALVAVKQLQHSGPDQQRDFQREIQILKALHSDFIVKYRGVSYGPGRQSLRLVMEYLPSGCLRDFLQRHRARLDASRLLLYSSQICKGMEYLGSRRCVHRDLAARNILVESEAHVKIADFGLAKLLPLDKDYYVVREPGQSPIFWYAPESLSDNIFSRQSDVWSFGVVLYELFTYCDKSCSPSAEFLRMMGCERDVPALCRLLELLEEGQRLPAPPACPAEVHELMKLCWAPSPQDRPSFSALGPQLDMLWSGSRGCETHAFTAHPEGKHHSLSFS

NC[C@H](CCCCNC(=O)c1cccc(O)c1O)N1C(=O)c2c(ccc(O)c2O)[C@@H](c2ccc(O)cc2)[C@]1(O)C(=O)O
EC50 [1]: 38.4 µM

O=C1C(c2ccc(O)c(O)c2)=c2c(c3c(n2CCc2ccc(O)c(O)c2)=C(c2ccc(O)c(O)c2)C(=O)c2c-3ccc(O)c2O)-c2cc(O)c(O)cc21
IC50 [2]: < 0.5 µM | IC50 [3]: < 2.4 µM | IC50 [4]: < 1.4 µM

O=C(O)[C@@H]1Cc2cc(O)c(O[C@@H]3O[C@H](CO[C@@H]4O[C@H](CO)[C@@H](O)[C@H](O)[C@H]4O)[C@@H](O)[C@H](O)[C@H]3O)cc2N1C(=O)/C=C/c1ccc(O[C@@H]2O[C@H](CO)[C@@H](O)[C@H](O)[C@H]2O)cc1
IC50 [5]: 53.1 µM

O=C1c2c(ccc(O)c2O)CCn2cccc21
IC50 [6]: 50.5 µM

O=C1CCc2cc(O)c(O)cc2N1
IC50 [7]: 20.5 µM

COC(=O)[C@@H]1Cc2cc(O)c(O[C@@H]3O[C@H](CO)[C@@H](O)[C@H](O)[C@H]3O)cc2N1C(=O)/C=C/c1ccc(O)c(OC)c1
EC50 [8]: 21 µM

NC[C@H](CCCCNC(=O)c1cccc(O)c1O)N1C(=O)c2c(ccc(O)c2O)[C@@H](c2c[nH]c3ccccc23)[C@]1(O)C(=O)O
EC50 [1]: 30.1 µM

CC(=O)NCCc1cc(O)c(O)cc1[C@H](NC(C)=O)C(=O)c1ccc(O)c(O)c1
Activity [9]: 5%

O=c1oc2cc(O)c(O)cc2c2c3c4cc(O)c(O)cc4oc(=O)c3n(CCc3ccc(O)c(O)c3)c12
IC50 [2]: 3.1 µM | IC50 [3]: 10 µM | IC50 [4]: 3.9 µM

COc1cc2c(cc1O)CCn1c-2c(-c2ccc(O)c(O)c2)c2c3cc(O)c(OC)cc3oc(=O)c21
IC50 [2]: 3 µM | IC50 [3]: 1.1 µM | IC50 [4]: > 10 µM

C[C@@H]1C[C@H]2[C@@H]3CCC4=CC(=O)C=C[C@]4(C)[C@@]3(F)[C@@H](O)C[C@]2(C)[C@@]1(O)C(=O)CO [DEXAMETHASONE]
IC50 [10]: 2 µM

NC[C@H](CCCCNC(=O)c1cccc(O)c1O)NC(=O)c1cccc(O)c1O
EC50 [1]: 4.6 µM

O=C(/C=C/c1ccc(O)c(O)c1)n1ccc2cc(O)c(O)cc21
IC50 [11]: 44.8 µM

COc1cc(/C=C/C(=O)O[C@H]2[C@H](OC[C@H]3O[C@@H](Oc4cc5c(cc4O)C[C@@H](C(=O)O)N5C(=O)/C=C/c4ccc(O)c(OC)c4)[C@H](O)[C@@H](O)[C@@H]3O)O[C@H](CO)[C@@H](O[C@@H]3O[C@H](CO)[C@@H](O)[C@H](O)[C@H]3O)[C@@H]2O)ccc1O
Activity [12]: 45.2% | Activity [13]: 75.6%

O=Cc1ccc2n1CCc1cc(O)c(O)cc1C2
IC50 [6]: 58.4 µM

CC1=NCCc2cc(O)c(O)cc21
Activity [14]: 15.9%

OCc1ccc(C2=NCCc3cc(O)c(O)cc32)o1
Activity [14]: 13.7%

CC(=O)O[C@H]1C(=O)[C@@]2(C)[C@H]([C@H](OC(=O)c3ccccc3)[C@]3(O)C[C@H](OC(=O)[C@H](O)[C@@H](NC(=O)c4ccccc4)c4ccccc4)C(C)=C1C3(C)C)[C@]1(OC(C)=O)CO[C@@H]1C[C@@H]2O [PACLITAXEL]
IC50 [15]: 0.15 µM

COc1cc(/C=C/C(=O)OC[C@H]2O[C@@H](O[C@H]3[C@H](O)[C@@H](OC(=O)/C=C/c4ccc(O)c(O)c4)[C@H](OC[C@H]4O[C@@H](Oc5cc6c(cc5O)C[C@@H](C(=O)O)N6C(=O)/C=C/c5ccc(O)cc5)[C@H](O)[C@@H](O)[C@@H]4O)O[C@@H]3CO)[C@H](O)[C@@H](O)[C@@H]2O)ccc1O
Activity [12]: 34.7% | Activity [13]: 81%

O=C(/C=C/c1ccc(O)cc1)n1ccc2cc(O)c(O[C@@H]3O[C@H](CO)[C@@H](O)[C@H](O)[C@H]3O)cc21
IC50 [11]: 58.8 µM

COC(=O)[C@@H]1Cc2cc(O)c(O[C@@H]3O[C@H](CO)[C@@H](O)[C@H](O)[C@H]3O)cc2N1C(=O)/C=C/c1ccc(O)cc1
EC50 [8]: 37.7 µM

COc1cc(/C=C/C(=O)O[C@H]2[C@H](OC[C@H]3O[C@@H](Oc4cc5c(cc4O)C[C@@H](C(=O)O)N5C(=O)/C=C/c4ccc(O)c(O[C@@H]5O[C@H](CO)[C@@H](O)[C@H](O)[C@H]5O)c4)[C@H](O)[C@@H](O)[C@@H]3O)O[C@H](CO)[C@@H](O[C@@H]3O[C@H](COC(=O)/C=C/c4cc(OC)c(O)c(OC)c4)[C@@H](O)[C@H](O)[C@H]3O)[C@@H]2O)ccc1O
Activity [12]: 22.4% | Activity [13]: 63.2%

C/C=C(\C)C(=O)O[C@H]1C[C@@H](OC(C)=O)[C@@]2(C(=O)OC)CO[C@H]3[C@@H](O)[C@@](C)([C@]45O[C@@]4(C)[C@H]4C[C@@H]5O[C@@H]5OC=C[C@@]54O)[C@H]4[C@]1(CO[C@]4(O)C(=O)OC)[C@@H]32 [AZADIRACTIN]
EC50 [16]: 29.3 µM | EC50 [17]: 68.1 µM

COc1cc(/C=C/C(=O)n2ccc3cc(O)c(O)cc32)ccc1O
EC50 [18]: 13.9 µM | IC50 [11]: 46.8 µM

O=C1O[C@H]([C@@H](O)CO)C(O)=C1O [ASCORBIC ACID]
EC50 [19]: 9.72 µg/mL (≈ 55.2 µM) | EC50 [20]: 4.89 µg/mL (≈ 27.8 µM)

COCc1ccc(C=O)n1CCc1ccc(O)c(O)c1
IC50 [7]: 11.6 µM

COc1cc(O)c2c(c1)C(=O)c1cc(O)c(O)cc1CCN2
IC50 [6]: 46 µM

CS(=O)(=O)Nc1ccc([N+](=O)[O-])cc1OC1CCCCC1 [NS-398]
Activity [21]: 97.1%

O=C(/C=C/c1ccc(O)c(O)c1)OC[C@H]1O[C@@H](O[C@H]2[C@H](O)[C@@H](OC(=O)/C=C/c3ccc(O)c(O)c3)[C@H](OC[C@H]3O[C@@H](Oc4cc5c(cc4O)C[C@@H](C(=O)O)N5C(=O)/C=C/c4ccc(O)cc4)[C@H](O)[C@@H](O)[C@@H]3O)O[C@@H]2CO)[C@H](O)[C@@H](O)[C@@H]1O
Activity [12]: 38.8% | Activity [13]: 74.2%

COc1cc(/C=C/C(=O)N2c3cc(O[C@@H]4O[C@H](CO[C@@H]5O[C@H](CO)[C@@H](O)[C@H](O)[C@H]5OC(=O)/C=C/c5cc(OC)c(O)c(OC)c5)[C@@H](O)[C@H](O)[C@H]4O)c(O)cc3C[C@H]2C(=O)O)ccc1O
Activity [12]: 38.9% | Activity [13]: 82.4%

COc1cc2c(cc1O)[C@@H]1Cc3cc(O)c(O)cc3C[N@@+]1(C)CC2
IC50 [15]: 85.1 µM

N[C@@H](CO)C(=O)O [SERINE]
IC50 [6]: 38.3 µM

Oc1cc2c(cc1O)CCN=C2
Activity [14]: 24.2%

O=C1C(c2ccc(O)c(O)c2)=c2c(c3c(n2CCc2ccc(O)c(O)c2)=C(c2ccc(O)c(O)c2)C(=O)c2cc(O)c(O)cc2-3)-c2cc(O)c(O)cc21
IC50 [2]: < 0.2 µM | IC50 [3]: < 0.5 µM | IC50 [4]: < 0.3 µM

O=C(/C=C/c1ccc(O)cc1)n1ccc2cc(O)c(O)cc21
EC50 [18]: 16.2 µM | IC50 [11]: 55.1 µM

O=c1oc2cc(O)c(O)cc2c2c(-c3ccc(O)c(O)c3)cn(CCc3ccc(O)c(O)c3)c12
IC50 [2]: 0.8 µM | IC50 [3]: 2.6 µM | IC50 [4]: 1.5 µM

O=C1C(c2ccc(O)c(O)c2)=C2C(=C(c3ccc(O)c(O)c3)C(=O)N2CCc2ccc(O)c(O)c2)c2cc(O)c(O)cc21
IC50 [2]: < 0.2 µM | IC50 [3]: < 1.5 µM | IC50 [4]: < 0.2 µM

CO[C@H](CNC(=O)/C=C/c1ccc(O)cc1)c1ccc(O)c(O)c1
Activity [22]: 61.6% | EC50 [16]: 23.1 µM | EC50 [17]: 46.9 µM

NC[C@H](CCCCNC(=O)c1cccc(O)c1O)N1C(=O)c2c(ccc(O)c2O)[C@@H](c2ccccc2)[C@]1(O)C(=O)O
EC50 [1]: 28 µM

O=C(/C=C/c1ccc(O)cc1)NCCc1ccc(O)c(O)c1
Activity [22]: 65.1% | EC50 [16]: 16.9 µM | EC50 [17]: 41.3 µM

Cc1cnc(-c2ccc(O)c(O)c2)c(C)n1
IC50 [23]: 12.6 µM
